Results from PMC8226474, “Design, Syntheses, and Bioevaluations of Some Novel N^2-Acryloylbenzohydrazides as Chemostimulants and Cytotoxic Agents” (Medicines, 2021).
Where two headings read alike, the source gives them in different places.

How the values were obtained:
HCT 116 cells [1] = assay: Cytotoxicity assay, HCT 116 colon cancer cells; type: cell-based, human; details: for SI (selectivity index): IC50 CRL 1790 / IC50 HCT 116
Excerpt: (§1) Evaluation of the cytotoxic properties of the compounds presented in Table 1, Table 2, Table 3 and Table 4 was undertaken using the procedure outlined in [7]. In brief, the HCT 116 cells were obtained from the ATCC and cultured in McCoy’s 5A medium. The CRL 1790 cells were obtained from the ATCC and cultured in Minimum Essential Medium. The MCF-7 and MDA-MBA-231 cells were obtained from the Saskatchewan Cancer Agency and cultured in DMEM. In each assay the culture medium was supplemented with 10% fetal bovine serum and 1% penicillin–streptomycin antibiotics. The time of the bioassays was 48 h, unless indicated otherwise. All determinations were carried out in triplicate on three different occasions.

MCF-7 cells = assay: Cytotoxicity assay, MCF-7 breast cancer cells; type: cell-based, human; details: Homo sapiens, MCF7, 48 h, read-out: percentage inhibition of MCF-7 cells
Excerpt: as §1

MDA-MB-231 cells = assay: Cytotoxicity assay, MDA-MB-231 breast cancer cells; type: cell-based, human; details: Homo sapiens, MDA-MB-231, 48 h, read-out: percentage inhibition of MDA-MB-231 cells
Excerpt: as §1

CRL 1790 cells = assay: Cytotoxicity assay, non-malignant CRL 1790 colon cells; type: cell-based; details: Homo sapiens, 48 h
Excerpt: as §1

HCT 116 cells [2] = assay: Mitochondrial membrane potential of HCT 116 cells (TMRE dye); type: cell-based, human; details: IC50 concentration towards HCT 116, 48 h, Figure 4
Excerpt: The method of Crowley et al. was employed in order to ascertain the effects of 1m, 7a, e, g, and 5-FU on the mitochondrial membrane potential of HCT 116 cells.
The decision was made to experiment with another method for determining the effect of compounds on the MMP. In this assay, the dye used was tetramethylrhodamine ethyl ester (TMRE), which can be found in the mitochondria of healthy cells. However, in apoptotic cells, the dye is released into the cytosol, leading to a decrease in the fluorescence signal.

HCT 116 cells [3] = assay: ROS levels in HCT 116 cells (DCF-DA dye); type: cell-based, human; details: IC50 concentration towards HCT 116; DCF-DA fluorescence; Figure 5
Procedure: In this assay, the dye 2,7-dichlorofluorescein diacetate (DCF-DA) was used, and the effects of 1m, 7a, e, g, and 5-FU on the ROS levels in HCT 116 cells were determined by the method of [11].
The evaluation of 1m, […], e, and g for their capacity to increase the concentration of ROS in HCT 116 cells used 2′,7′-dichlorofluorescein diacetate. This dye is deacetylated in cells, and is converted into a non-fluorescent compound that reacts with ROS to form 2′,7′-dichlorofluorescein, which is fluorescent.

[4] = Homo sapiens, HCT-116, Table 4, 48 h, read-out: IC50 HCT 116
[5] = ratio of IC50 values towards HCT 116 cells
[6] = Table 4, read-out: IC50 CRL 1790

In the case of CCC(=O)NNC(=O)c1ccccc1 [6a, N^2-Propionylbenzohydrazide], the inhibition at 10 µM (HCT 116 cells [1]; Homo sapiens, HCT-116, 10 µM, 48 h, read-out: percentage inhibition of HCT 116 cells) is reported as -10.5 ± 2.93%, the inhibition at 100 µM (HCT 116 cells [1]; Homo sapiens, HCT-116, 100 µM, 48 h, read-out: percentage inhibition of HCT 116 cells) is reported as 9.35 ± 2.53% and the IC50 (HCT 116 cells [1]; Homo sapiens, HCT-116, Table 2, 48 h, read-out: Neoplastic Cells IC50, HCT 116) is reported as > 100 µM. For the same molecule, the “SI (selectivity index)” value (HCT 116 cells [1]; Table 2) was ~1.00, the inhibition at 10 µM (MCF-7 cells; 10 µM) was -19.6 ± 3.66% and the inhibition at 100 µM (MCF-7 cells; 100 µM) was -5.69 ± 2.54%. The inhibition at 10 µM (MDA-MB-231 cells; 10 µM) was -25.3 ± 1.82%, the inhibition at 100 µM (MDA-MB-231 cells; 100 µM) was -11.6 ± 2.52% and the IC50 (CRL 1790 cells; Table 2, read-out: Non-Malignant CRL 1790 Cells IC50) was > 100 µM. It also gave a melting point of 106 to 107 °C.
For O=C(CCN1CC(=Cc2ccccc2)C(=O)C(=Cc2ccccc2)C1)NNC(=O)c1ccccc1 [7a, 3,5-Bis(benzylidene)-1-[3-(phenylcarbonylaminoamino)-3-oxo-1-propyl]-4-piperidone], the IC50 (HCT 116 cells [1]; [4]) was 1.38 ± 0.25 µM, the “times more potent than 1a” value (HCT 116 cells [1]; [5]) was 26.7 times and the IC50 (CRL 1790 cells; [6]) was 12.3 ± 1.09 µM. For the same molecule, the “effect on mitochondrial membrane potential of HCT 116 cells” value (shortened to “effect … of HCT 116 cells”) (HCT 116 cells [2]) was “only 7e reduces the electrochemical potential of the mitochondria”, the “effect on ROS levels in HCT 116 cells” value (HCT 116 cells [3]) was “increase the fluorescence intensity” and the melting point was 154 to 156 °C.
With COc1ccc(C(=O)NNC(=O)CCN2CC(=Cc3ccc([N+](=O)[O-])cc3)C(=O)C(=Cc3ccc([N+](=O)[O-])cc3)C2)cc1OC [7e, 3,5-Bis(4-nitrobenzylidene)-1-[3-(3,4-dimethoxyphenylcarbonylaminoamino)-3-oxo-1-propyl]-4-piperidone] the IC50 (HCT 116 cells [1]; [4]) was 0.28 ± 0.01 µM, the “SI (selectivity index)” value (HCT 116 cells [1]; Table 4) was 16.3 and the “times more potent than 5-FU” value (HCT 116 cells [1]; [5]) was 14.7 times. The “times the antineoplastic activity of melphalan” value (HCT 116 cells [1]; [5]) was 119 times, the IC50 (CRL 1790 cells; [6]) was 4.57 ± 0.53 µM and the “effect … of HCT 116 cells” value (HCT 116 cells [2]) was “reduces the electrochemical potential of the mitochondria”. For the same molecule, the “effect on ROS levels in HCT 116 cells” value (HCT 116 cells [3]) was “increase the fluorescence intensity” and the melting point was 153 to 158 °C.
With COc1ccc(C(=O)NNC(=O)CCN2CC(=Cc3ccc(C)cc3)C(=O)C(=Cc3ccc(C)cc3)C2)cc1OC [7g, 3,5-Bis(4-methylbenzylidene)-1-[3-(3,4-dimethoxyphenylcarbonylaminoamino)-3-oxo-1-propyl]-4-piperidone] the IC50 (HCT 116 cells [1]; [4]) was 1.94 ± 0.18 µM, the “SI (selectivity index)” value (HCT 116 cells [1]; Table 4) was 4.76 and the IC50 (CRL 1790 cells; [6]) was 9.24 ± 0.52 µM. For the same molecule, the “effect … of HCT 116 cells” value (HCT 116 cells [2]) was “only 7e reduces the electrochemical potential of the mitochondria”, the “effect on ROS levels in HCT 116 cells” value (HCT 116 cells [3]) was “increase the fluorescence intensity” and the melting point was 190 to 192 °C.
